{
  "source": "patent US3951954A",
  "about": "“Novel oxofuryl ester derivatives of penicillin and cephalosporin” (priority 1971, dated 1976)",
  "key": {"[1]": {"assay": "Concentration of ampicillin in blood plasma of rats after oral administration (Experiment a)", "conditions": "rat, in vivo, 20 mg/kg", "text": "Now, for showing the excellent properties of the compounds of this invention, the experiments of testing the concentration of the compound in blood when it was orally administered and the results thereof are shown in the following examples together with the results of the tests made about ampicillin and pivampicillin.\nEach of ampicillin tri-hydrate, pivampicillin hydrochloride-mono-hydrate, and the hydrochloride of the aimed compound of this invention was orally administered to rats (male, each group five rats) in an amount of 20 mg/kg as ampicillin and after 0.5 hour, the blood was drawn and the concentration of ampicillin in the blood plasma was measured."}, "[2]": {"conditions": "background statement; cited from earlier work"}, "[3]": {"conditions": "Chemical Abstracts 45, 4824h (1951); 55, 8653d (1961); cited from earlier work"}, "liver": {"test_system": "liver", "conditions": "Biochem. Pharmacol. 16, 1533-1537 (1967) and others; cited from earlier work"}},
  "note": "Where a name gives a salt, the structure may show the parent alone.",
  "data": [
    {"smiles": "CC1(C)S[C@@H]2[C@H](NC(=O)[C@H](N)c3ccccc3)C(=O)N2[C@H]1C(=O)O", "note": "[Ampicillin tri-hydrate, reference compound]", "values": [
      {"measurement": "concentration at 0.5 h", "setting": "[1]", "result": 1000, "unit": "ng/mL"}
    ]},
    {"smiles": "CC1(C)S[C@@H]2[C@H](NC(=O)[C@H](N)c3ccccc3)C(=O)N2[C@H]1C(=O)OC1OC(=O)c2ccccc21", "note": "(some centres unmarked) [Example 2, ampicillin 1-oxo-1,3-dihydroisobenzofuran-3-yl ester hydrochloride]", "values": [
      {"measurement": "Concentration of ampicillin in blood plasma", "setting": "[1]; 30 min", "result": 5580, "unit": "ng/mL"}
    ]},
    {"smiles": "CC1(C)S[C@@H]2C(NC(=O)C(N)c3ccccc3)C(=O)N2[C@H]1C(=O)O", "note": "(stereo partly drawn) [ampicillin, 6-(α-aminophenylacetamido)penicillanic acid]", "values": [
      {"measurement": "extent of absorption by oral administration", "setting": "[2]", "result": "not necessarily sufficient"}
    ]},
    {"smiles": "C=O", "note": "[formaldehyde]", "values": [
      {"measurement": "toxic property compared with other aldehydes of larger molecular weight", "setting": "[3]", "result": "about 50 times"},
      {"measurement": "influence on liver", "setting": "liver", "result": "bad influences on a liver"}
    ]}
  ]
}
